Test results: patent US10087148B2, “Quinazolines as biogenic amine transport modulators” (THE UNITED STATES OF AMERICA AS REPRESENTED BY THE …, priority 2014, dated 2018)
“Also recorded” adds a separate entry of the source.

How the values were obtained:
Format in all cases: biochemical
[1] = target: serotonin transporter (SERT) (Rattus norvegicus (Rat), UniProt P31652); assay: [3H]serotonin (5-HT) uptake inhibition in rat brain synaptosomes; settings: mean ± S.D.; n = 3
Procedure: Uptake inhibition assay for the serotonin transporter was conducted in rat brain synaptosomes as described elsewhere with minor modifications (Rothman et al., Synapse 39, 32-41 (2001)). Freshly removed whole brain minus cerebellum and caudate was homogenized in 10% ice-cold sucrose with 12 strokes of a hand-held Potter-Elvehjem homogenizer followed by centrifugation at 1000×g for 10 min. The supernatants were saved on ice and used immediately. Transporter activity at SERT was assessed using 5 nM [^3H]serotonin. The assay buffer was Krebs-phosphate buffer containing 154.4 mM NaCl, 2.9 mM KCl, 1.1 mM CaCl2, 0.83 mM MgCl2, 5 mM glucose, 1 mg/mL ascorbic acid, and 50 μM pargyline. […] Uptake inhibition assays were conducted at 25° C. and were initiated by adding 100 μL of tissue to 900 μL assay buffer containing test drug and [^3H]serotonin. Test drugs were diluted in assay buffer containing 1 mg/mL bovine serum albumin. Nonspecific uptake was measured by incubating in the presence of 10 μM indatraline. The reactions were stopped after 30 min by rapid vacuum filtration with a cell harvester (BRANDEL) over GF/B filters (Whatman) presoaked in wash buffer maintained at 25° C. (10 mM Tris-HCl, pH 7.4/150 mM NaCl). Filters were rinsed with 6 mL wash buffer and retained tritium was quantified by a MicroBeta liquid scintillation counter (PerkinElmer) after overnight extraction in 0.6 mL of liquid scintillation cocktail (Cytoscint, ICN). The data from three experiments were pooled and fit to a dose-response curve equation (using Kaleidagraph), to yield an Emax and EC50 value.

[2] = target: norepinephrine transporter (NET) (Rattus norvegicus, UniProt Q63380); assay: [3H]norepinephrine (NE) uptake inhibition in rat brain synaptosomes; settings: mean ± S.D.; n = 3
Procedure: Uptake inhibition assay for the norepinephrine transporter was conducted in rat brain synaptosomes as described elsewhere with minor modifications (Rothman et al., Synapse 39, 32-41 (2001)). Freshly removed whole brain minus cerebellum and caudate was homogenized in 10% ice-cold sucrose with 12 strokes of a hand-held Potter-Elvehjem homogenizer followed by centrifugation at 1000×g for 10 minutes. The supernatants were saved on ice and used immediately. Transporter activity at NET was assessed using 10 nM [^3H]norepinephrine. The assay buffer was Krebs-phosphate buffer containing 154.4 mM NaCl, 2.9 mM KCl, 1.1 mM CaCl2, 0.83 mM MgCl2, 5 mM glucose, 1 mg/mL ascorbic acid, and 50 μM pargyline. […] Uptake inhibition assays were conducted at 37° C. and were initiated by adding 100 μL of tissue to 900 μL assay buffer containing test drug and [^3H]norepinephrine. Test drugs were diluted in assay buffer containing 1 mg/mL bovine serum albumin. Nonspecific uptake was measured by incubating in the presence of 10 μM indatraline. The reactions were stopped after 10 minutes by rapid vacuum filtration with a cell harvester (BRANDEL) over GF/B filters (Whatman) presoaked in wash buffer maintained at 25° C. (10 mM Tris-HCl, pH 7.4/150 mM NaCl). Filters were rinsed with 6 mL wash buffer and retained tritium was quantified by a MicroBeta liquid scintillation counter (PerkinElmer) after overnight extraction in 0.6 mL of liquid scintillation cocktail (Cytoscint, ICN). The data from three experiments were pooled and fit to a dose-response curve equation (using Kaleidagraph), to yield an Emax and EC50 value.

[3] = target: dopamine transporter (DAT) (Rattus norvegicus (Rat), UniProt P23977); assay: [3H]dopamine (DA) uptake inhibition in rat brain (caudate) synaptosomes; settings: for DA Uptake Emax / EC50: rat caudate synaptosomes, 5 nM [3H]dopamine, mean ± SD; for One-Site Emax / Two-Site Emax-1 / Two-Site Emax-2: [3H]DA uptake; for One-Site Emax: one-component fit; for Two-Site Emax-1 / Two-Site Emax-2: two-component fit; for Two-Site Emax-1: component 1; for Two-Site Emax-2: component 2
Procedure: Uptake inhibition assay for the dopamine transporter was conducted in rat brain synaptosomes as described elsewhere with minor modifications (Rothman et al., Synapse 39, 32-41 (2001)). Freshly removed caudate was homogenized in 10% ice-cold sucrose with 12 strokes of a hand-held Potter-Elvehjem homogenizer followed by centrifugation at 1000×g for 10 min. The supernatants were saved on ice and used immediately. Transporter activity was assessed using 5 nM [^3H]dopamine. The assay buffer was Krebs-phosphate buffer containing 154.4 mM NaCl, 2.9 mM KCl, 1.1 mM CaCl2, 0.83 mM MgCl2, 5 mM glucose, 1 mg/mL ascorbic acid, and 50 μM pargyline. The selectivity of the uptake assay for DAT was optimized by including 100 nM citalopram and 100 nM desipramine as blockers of SERT and NET in the sucrose solution and assay buffer. Uptake inhibition assays were conducted at 25° C. and were initiated by adding 100 μl of tissue to 900 μL assay buffer containing test drug and [^3H]dopamine. Test drugs were diluted in assay buffer containing 1 mg/mL bovine serum albumin. Nonspecific uptake was measured by incubating in the presence of 10 μM indatraline. The reactions were stopped after 15 minutes by rapid vacuum filtration with a cell harvester (BRANDEL) over GF/B filters (Whatman) presoaked in wash buffer maintained at 25° C. (10 mM Tris-HCl, pH 7.4/150 mM NaCl). Filters were rinsed with 6 mL wash buffer and retained tritium was quantified by a MicroBeta liquid scintillation counter (PerkinElmer) after overnight extraction in 0.6 mL of liquid scintillation cocktail (Cytoscint, ICN). The data from three experiments were pooled and fit to a dose-response curve equation (using Kaleidagraph), to yield an Emax and EC50 value.
All of the test compounds were synthesized as described herein. Next, 8-point dose-response curves were generated for each compound (1-20,000 nM) in the [^3H]DA uptake assay. The data from three experiments were pooled and fit to a dose-response curve equation (using KaleidaGraph; Synergy Software, Reading, Pa.) to yield an Emax and IC50 value. […] Selected compounds were also tested for their ability to inhibit [^3H]WIN35428 binding to rat caudate DAT.

dopamine transporter (DAT), sequence (P23977 whole entry): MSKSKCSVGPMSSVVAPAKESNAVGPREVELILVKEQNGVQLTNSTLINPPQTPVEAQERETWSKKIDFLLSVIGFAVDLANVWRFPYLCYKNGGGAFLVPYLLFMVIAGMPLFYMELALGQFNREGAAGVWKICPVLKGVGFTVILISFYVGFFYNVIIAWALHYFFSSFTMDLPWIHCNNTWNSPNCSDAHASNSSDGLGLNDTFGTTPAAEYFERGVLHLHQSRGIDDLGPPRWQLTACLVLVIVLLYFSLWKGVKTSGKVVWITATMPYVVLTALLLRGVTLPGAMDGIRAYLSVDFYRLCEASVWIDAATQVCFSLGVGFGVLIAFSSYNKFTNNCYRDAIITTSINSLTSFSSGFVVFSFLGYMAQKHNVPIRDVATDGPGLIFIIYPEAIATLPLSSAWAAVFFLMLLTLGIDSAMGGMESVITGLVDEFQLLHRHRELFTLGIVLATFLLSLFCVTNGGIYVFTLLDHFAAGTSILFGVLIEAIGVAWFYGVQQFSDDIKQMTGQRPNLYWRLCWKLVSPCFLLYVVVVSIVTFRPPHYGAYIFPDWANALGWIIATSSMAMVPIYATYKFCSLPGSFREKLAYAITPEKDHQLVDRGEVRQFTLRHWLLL
serotonin transporter (SERT), sequence (P31652 whole entry): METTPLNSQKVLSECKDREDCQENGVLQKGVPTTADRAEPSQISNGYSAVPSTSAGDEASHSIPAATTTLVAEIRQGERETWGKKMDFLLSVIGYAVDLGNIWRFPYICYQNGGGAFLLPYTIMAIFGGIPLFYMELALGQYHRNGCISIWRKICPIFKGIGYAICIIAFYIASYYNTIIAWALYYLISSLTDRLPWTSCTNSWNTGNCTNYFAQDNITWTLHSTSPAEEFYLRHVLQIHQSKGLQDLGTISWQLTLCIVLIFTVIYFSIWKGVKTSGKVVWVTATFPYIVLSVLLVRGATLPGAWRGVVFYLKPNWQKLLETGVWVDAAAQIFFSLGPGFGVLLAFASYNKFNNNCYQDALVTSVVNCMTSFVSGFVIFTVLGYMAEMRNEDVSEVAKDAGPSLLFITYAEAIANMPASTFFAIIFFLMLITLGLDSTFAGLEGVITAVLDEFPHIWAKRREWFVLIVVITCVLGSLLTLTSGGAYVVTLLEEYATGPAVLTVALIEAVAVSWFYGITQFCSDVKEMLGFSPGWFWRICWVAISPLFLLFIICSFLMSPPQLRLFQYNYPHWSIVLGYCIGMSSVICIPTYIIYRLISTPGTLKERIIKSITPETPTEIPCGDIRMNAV
norepinephrine transporter (NET), sequence (Q63380 1-617): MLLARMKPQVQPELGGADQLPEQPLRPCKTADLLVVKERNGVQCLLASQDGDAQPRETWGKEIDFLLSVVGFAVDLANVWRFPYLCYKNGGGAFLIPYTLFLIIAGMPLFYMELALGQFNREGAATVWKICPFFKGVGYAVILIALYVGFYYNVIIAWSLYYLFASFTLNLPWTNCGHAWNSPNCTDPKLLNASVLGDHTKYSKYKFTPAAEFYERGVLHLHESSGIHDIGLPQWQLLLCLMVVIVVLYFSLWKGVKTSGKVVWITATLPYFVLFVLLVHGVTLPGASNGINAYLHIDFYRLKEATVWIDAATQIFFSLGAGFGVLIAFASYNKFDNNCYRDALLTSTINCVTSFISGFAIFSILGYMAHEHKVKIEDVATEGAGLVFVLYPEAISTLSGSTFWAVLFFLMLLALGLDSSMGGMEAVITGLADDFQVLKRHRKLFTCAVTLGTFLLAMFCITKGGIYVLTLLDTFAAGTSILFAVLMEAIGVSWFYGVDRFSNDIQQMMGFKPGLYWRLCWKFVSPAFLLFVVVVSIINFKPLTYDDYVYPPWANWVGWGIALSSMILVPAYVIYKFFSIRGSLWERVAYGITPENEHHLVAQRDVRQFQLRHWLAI

SMILES	DA Uptake Emax [3] [% I]	EC50 [3] [nM]	further results
COC(=O)[C@H]1[C@@H](OC(=O)c2ccccc2)C[C@@H]2CC[C@H]1N2C [Cocaine, reference compound]			SERT Uptake Emax [1]: 98 ± 2%; NET Uptake Emax [2]: 102 ± 2%
CS(=O)(=O)Nc1ccc(-c2nc(NCC(c3ccccn3)c3ccc[nH]3)c3ccccc3n2)cc1 (stereo not shown) [Compound 32, N-(4-(4-((2-(pyridin-2-yl)-2-(1H-pyrrol-2-yl)ethyl)amino)quinazolin-2-yl)phenyl)methanesulfonamide]	73 ± 3	379 ± 80	
CN(C)c1ccc(-c2nc(NCC(c3ccccn3)c3ccc[nH]3)c3ccccc3n2)cc1 (stereo not shown) [Compound 33, 2-(4-(dimethylamino)phenyl)-N-(2-(pyridin-2-yl)-2-(1H-pyrrol-2-yl)ethyl)quinazolin-4-amine]	89 ± 4	65 ± 18	
CN(C)c1ccc(-c2nc(NCC(c3ccncc3)c3ccncc3)c3ccccc3n2)cc1 [Compound 34, N-(2,2-di(pyridin-4-yl)ethyl)-2-(4-(dimethylamino)phenyl)quinazolin-4-amine]	78 ± 3	21 ± 5	
CS(=O)(=O)Nc1ccc(-c2nc(NCC(c3ccncc3)c3ccncc3)c3ccccc3n2)cc1 [Compound 35, N-(4-(4-((2,2-di(pyridin-4-yl)ethyl)amino)quinazolin-2-yl)phenyl)methanesulfonamide]	70 ± 2	47 ± 10	
CN(C)c1ccc(-c2nc(NCCc3ccccc3)c3ccccc3n2)cc1 [Compound 36, 2-(4-(dimethylamino)phenyl)-N-phenethylquinazolin-4-amine]	100 ± 1	156 ± 12	Efficacy of [3H]DA (DAT) uptake inhibition, in words [3]: fully inhibits; also recorded: full-efficacy; One-Site Emax [3]: 100 ± 1.5 % I; Two-Site Emax-1 [3]: 76 ± 54 % I; Two-Site Emax-2 [3]: 27 ± 53 % I
CS(=O)(=O)Nc1ccc(-c2nc(NCCc3ccccc3)c3ccccc3n2)cc1 [Compound 37, N-(4-(4-(phenethylamino)quinazolin-2-yl)phenyl)methanesulfonamide]	86 ± 6	159 ± 54	
CN(C)c1ccc(-c2nc(NCC(C)(c3ccccc3)c3ccccc3)c3ccccc3n2)cc1 [Compound 38, 2-(4-(dimethylamino)phenyl)-N-(2,2-diphenylpropyl)quinazolin-4-amine]	68 ± 3	15 ± 4	
CC(CNc1nc(-c2ccc(NS(C)(=O)=O)cc2)nc2ccccc12)(c1ccccc1)c1ccccc1 [Compound 39, N-(4-(4-((2,2-diphenylpropyl)amino)quinazolin-2-yl)phenyl)methanesulfonamide]	67 ± 2	16 ± 3	
CN(C)c1ccc(-c2nc(NC(Cc3ccccc3)c3ccccc3)c3ccccc3n2)cc1 (stereo not shown) [Compound 40, 2-(4-(dimethylamino)phenyl)-N-(1,2-diphenylethyl)quinazolin-4-amine]	72 ± 2	40 ± 8	
CS(=O)(=O)Nc1ccc(-c2nc(NC(Cc3ccccc3)c3ccccc3)c3ccccc3n2)cc1 (stereo not shown) [Compound 41, N-(4-(4-((1,2-diphenylethyl)amino)quinazolin-2-yl)phenyl)methanesulfonamide]	69 ± 3	50 ± 14	
CS(=O)(=O)Nc1ccc(-c2nc(NC(CCc3ccccc3)c3ccccc3)c3ccccc3n2)cc1 (stereo not shown) [Compound 42, N-(4-(4-((1,3-diphenylpropyl)amino)quinazolin-2-yl)phenyl)methanesulfonamide]	72 ± 2	71 ± 11	
CN(C)c1ccc(-c2nc(NC(CCc3ccccc3)c3ccccc3)c3ccccc3n2)cc1 (stereo not shown) [Compound 43, 2-(4-(dimethylamino)phenyl)-N-(1,3-diphenylpropyl)quinazolin-4-amine]	70 ± 4	75 ± 22	
CC(C)C(CNc1nc(-c2ccc(N(C)C)cc2)nc2ccccc12)c1ccccc1 (stereo not shown) [Compound 44, 2-(4-(dimethylamino)phenyl)-N-(3-methyl-2-phenylbutyl)quinazolin-4-amine]	84 ± 5	30 ± 10	
CC(C)C(CNc1nc(-c2ccc(NS(C)(=O)=O)cc2)nc2ccccc12)c1ccccc1 (stereo not shown) [Compound 45, N-(4-(4-((3-methyl-2-phenylbutyl)amino)quinazolin-2-yl)phenyl)methanesulfonamide]	78 ± 4	20 ± 6	
CCN(CC)C(=O)[C@]1(c2ccccc2)C[C@@H]1CNc1nc(-c2ccc(N(C)C)cc2)nc2ccccc12 [Compound 46, (1R,2S)-2-(((2-(4-(dimethylamino)phenyl)quinazolin-4-yl)amino)methyl)-N,N-diethyl-1-phenylcyclopropanecarboxamide]	93 ± 1	243 ± 18	
Cc1cc(NS(C)(=O)=O)ccc1-c1nc(NCC(c2ccncc2)c2ccncc2)c2ccccc2n1 [Compound 47, N-(4-(4-((2,2-di(pyridin-4-yl)ethyl)amino)quinazolin-2-yl)-3-methylphenyl)methanesulfonamide]	67 ± 4	84 ± 25	
CN(C)c1ccc(-c2nc(NCC(Oc3ccccc3)c3ccccc3)c3ccccc3n2)cc1 (stereo not shown) [Compound 48, 2-(4-(dimethylamino)phenyl)-N-(2-phenoxy-2-phenylethyl)quinazolin-4-amine]	72 ± 3	42 ± 10	
CS(=O)(=O)Nc1ccc(-c2nc(NCC(Oc3ccccc3)c3ccccc3)c3ccccc3n2)cc1 (stereo not shown) [Compound 49, N-(4-(4-((2-phenoxy-2-phenylethyl)amino)quinazolin-2-yl)phenyl)methanesulfonamide]	67 ± 2	30 ± 5	
c1ccc(C(CNc2nc(-c3ccc4c(c3)CCN4)nc3ccccc23)c2ccccc2)cc1 [SRI-29986]			Efficacy of [3H]DA (DAT) uptake inhibition, in words [3]: partial inhibitors; One-Site Emax [3]: 75 ± 3 % I; Two-Site Emax-1 [3]: 37 × 10^8 ± 2.7 × 10^8 % I; Two-Site Emax-2 [3]: 37 × 10^8 ± 0.7 × 10^8 % I
